In ChEMBL document CHEMBL1144269, “Carbonic anhydrase inhibitors. Inhibition of isozymes I, II, IV, V, and IX with anions isosteric and isoelectronic with sulfate, nitrate, and carbonate” (Bioorg Med Chem Lett, 2005):

Assays:
[1] = biological target: Carbonic anhydrase 5A, mitochondrial (Homo sapiens, UniProt P35218)
[2] = biological target: Carbonic anhydrase 9 (Homo sapiens, UniProt Q16790)
[3] = biological target: Carbonic anhydrase 4 (Homo sapiens, UniProt P22748)
[4] = biological target: Carbonic anhydrase 1 (Homo sapiens, UniProt P00915)
[5] = biological target: Carbonic anhydrase 2 (Homo sapiens, UniProt P00918)

Chain of Carbonic anhydrase 4 (P22748 whole entry): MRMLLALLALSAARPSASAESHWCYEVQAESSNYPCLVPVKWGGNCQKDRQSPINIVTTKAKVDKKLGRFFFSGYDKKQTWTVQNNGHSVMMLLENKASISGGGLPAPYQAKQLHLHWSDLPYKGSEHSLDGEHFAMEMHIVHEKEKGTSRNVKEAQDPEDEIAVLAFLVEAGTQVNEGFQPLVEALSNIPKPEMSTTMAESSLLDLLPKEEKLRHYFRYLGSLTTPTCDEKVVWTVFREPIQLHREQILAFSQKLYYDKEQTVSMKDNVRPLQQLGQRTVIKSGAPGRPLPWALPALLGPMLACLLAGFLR
Chain of Carbonic anhydrase 1 (P00915 whole entry): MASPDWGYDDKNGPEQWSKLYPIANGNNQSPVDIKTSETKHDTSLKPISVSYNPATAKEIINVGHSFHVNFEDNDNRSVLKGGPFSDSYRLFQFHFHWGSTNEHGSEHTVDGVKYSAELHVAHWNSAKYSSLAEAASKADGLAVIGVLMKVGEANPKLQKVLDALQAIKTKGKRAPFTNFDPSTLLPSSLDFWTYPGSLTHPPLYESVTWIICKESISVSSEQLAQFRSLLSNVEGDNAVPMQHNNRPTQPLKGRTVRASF
Chain of Carbonic anhydrase 5A, mitochondrial (P35218 whole entry): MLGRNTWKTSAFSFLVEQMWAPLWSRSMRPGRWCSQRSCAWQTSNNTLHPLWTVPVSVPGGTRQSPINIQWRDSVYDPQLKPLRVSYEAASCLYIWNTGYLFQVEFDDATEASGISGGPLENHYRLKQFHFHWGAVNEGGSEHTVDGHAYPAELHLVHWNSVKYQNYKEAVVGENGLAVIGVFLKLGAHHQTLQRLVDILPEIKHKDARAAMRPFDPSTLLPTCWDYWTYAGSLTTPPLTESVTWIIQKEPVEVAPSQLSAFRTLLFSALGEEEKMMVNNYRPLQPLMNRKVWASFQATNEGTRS

O=C(O)O [BICARBONATE]
Ki [1]: 95 mM
Ki [2]: 0.0086 mM

[O-][Br+2]([O-])O [BROMATE]
Ki [1]: 11.3 mM
Ki [3]: 128 mM
Ki [4]: 4.79 mM
Ki [2]: 274 mM
Ki [5]: 12 mM

[O-][Cl+2]([O-])O [CHLORATE]
Ki [1]: 7.12 mM
Ki [3]: 64.9 mM
Ki [4]: 0.54 mM
Ki [2]: 147 mM
Ki [5]: 0.85 mM

O=[N+]([O-])O [NITRIC ACID]
Ki [1]: 16 mM

[O-][Cl+3]([O-])([O-])O [PERCHLORATE]
Ki [1]: 13.6 mM
Ki [3]: 767 mM
Ki [4]: 0.69 mM
Ki [2]: 11.6 mM

[O-][I+3]([O-])([O-])O [PERIODATE]
Ki [1]: 15.7 mM
Ki [3]: 226 mM
Ki [4]: 14.6 mM
Ki [2]: 30.3 mM
Ki [5]: 75.8 mM

NS(=O)(=O)O [SULFAMATE]
Ki [1]: 0.12 mM
Ki [2]: 0.0092 mM

O=S(=O)(O)O [SULFURIC ACID]
Ki [1]: 680 mM
Ki [2]: 154 mM
